# Reference: PMC7859440, “Transporter Gene Regulation in Sandwich Cultured Human Hepatocytes Through the Activation of Constitutive Androstane Receptor (CAR) or Aryl Hydrocarbon Receptor (AhR)” (Frontiers in Pharmacology, 2021)
# Several values for one entry are separate records, joined by “and”; a condition that tells them apart may be missing. Equal entries are not always repeated.
# Experiments:
# UGT1A1 = experiment: gene induction in sandwich-cultured human hepatocytes (qRT-PCR); conditions: for EC50 at 72 h: human, sandwich-cultured human hepatocytes (SCHH)
# Method: (§1) Cryopreserved human hepatocytes were quickly thawed at 37°C and then transferred into hepatocyte thawing medium. Cells were pelleted at 100 × g for 10 min and then resuspended in hepatocyte complete plating medium (CP medium). The cells were then seeded at 65,000 cells per well in 96-well collagen I coated plates. After cell attachment (4–6 h post-seeding), CP medium was exchanged for ice-cold complete incubation medium (HI medium) containing BD Matrigel™ at the concentration of 0.25 mg/ml. The cells were then incubated overnight at 37°C in a humidified 5% CO2 incubator. […] Cell death or loss of adhesion of hepatocytes during or after treatment were examined by microscopy.
# (§2) A RNeasy 96 Kit (Qiagen) was used to extract the total cellular RNA from sandwich cultured hepatocytes in 96-well plates following the manufacturer's instructions. A total volume of 200 μL RNA was obtained via the column elution provided in the RNeasy kit. Five μL RNA extraction was mixed with TaqMan® Fast Virus 1-Step Master Mix (Life Technologies) in a final reaction volume of 20 μL and qRT-PCR was achieved using a QuantStudio 6 Flex Real-Time PCR System (Life Technologies), following the manufacturer's instructions. β-actin mRNA expression in the SCHH was used as a house-keeping gene for the normalization of target gene expressions. The mRNA levels in SCHH treated with AhR or CAR activators were expressed by a fold change, compared to the gene expressions without the treatment. The 2^−ΔΔCt method ([Livak and Schmittgen, 2001]) was used to analyze the relative changes in gene expression, where the Ct is the cycle number at which the fluorescence in the reaction crosses the preset arbitrary threshold; the ΔCt represents the difference between the Ct target and reference and the ΔΔCt is the difference between the ΔCt of the test and the ΔCt of the preassigned control. Gene expression for each condition is expressed as a fold-change of mean ± standard deviation (SD) from three independent donors (each performed in triplicate). All primer and probe sets were purchased from Life Technologies (Table 2). When concentration-dependent induction observed, the in vitro induction mRNA data were fitted using the sigmoid 3-parameter equation in GraphPad Prism (La Jolla, CA) to estimate the in vitro concentration of inducer that produced half the maximum induction values (EC50).
# [1] = system: 24 hepatic drug transporter genes (mRNA); experiment: gene induction in sandwich-cultured human hepatocytes (qRT-PCR), transporter panel; format: cell-based; conditions: sandwich-cultured human hepatocytes (SCHH), generally, 24 transporter genes, read-out: average fold change (fold induction) of transporter genes
# SLC22A7 (OAT2) = experiment: gene induction in sandwich-cultured human hepatocytes (qRT-PCR); format: cell-based; conditions: SCHH, 72 h; TCDD 50 nM, OP 50 µM, CITCO 5 µM, PB 1,000 µM (highest conc.); mean ± SD, three donors
# SLC29A1 (ENT1) = experiment: as above; format: cell-based; conditions: SCHH, 72 h; TCDD 50 nM, OP 50 µM, CITCO 5 µM, PB 1,000 µM (highest conc.); mean ± SD, three donors
# CYP1A2 = conditions: SCHH, 72 h; TCDD 50 nM, OP 50 µM, CITCO 5 µM, PB 1,000 µM (highest conc.); mean ± SD, three donors
# Method: as §1
# A RNeasy 96 Kit (Qiagen) was used to extract the total cellular RNA from sandwich cultured hepatocytes in 96-well plates following the manufacturer's instructions. A total volume of 200 μL RNA was obtained via the column elution provided in the RNeasy kit. […] Gene expression for each condition is expressed as a fold-change of mean ± standard deviation (SD) from three independent donors (each performed in triplicate). […]
# SLC51B (OSTβ) = experiment: gene induction in sandwich-cultured human hepatocytes (qRT-PCR); format: cell-based; conditions: SCHH, 72 h; TCDD 50 nM, OP 50 µM, CITCO 5 µM, PB 1,000 µM (highest conc.); mean ± SD, three donors
# SLC22A5 (OCTN2) = experiment: as above; format: cell-based; conditions: SCHH, 72 h; TCDD 50 nM, OP 50 µM, CITCO 5 µM, PB 1,000 µM (highest conc.); mean ± SD, three donors
# SLC51A (OSTα) = experiment: as above; format: cell-based; conditions: SCHH, 72 h; TCDD 50 nM, OP 50 µM, CITCO 5 µM, PB 1,000 µM (highest conc.); mean ± SD, three donors
# SLC10A1 (NTCP) = experiment: as above; format: cell-based; conditions: SCHH; for SLC10A1 gene suppression (reduction): 3 days, highest concentration treated
# SLC16A1 (MCT1) = experiment: as above; format: cell-based; conditions: SCHH, 72 h; TCDD 50 nM, OP 50 µM, CITCO 5 µM, PB 1,000 µM (highest conc.); mean ± SD, three donors
# SLC29A2 (ENT2) = experiment: as above; format: cell-based; conditions: SCHH, 72 h; TCDD 50 nM, OP 50 µM, CITCO 5 µM, PB 1,000 µM (highest conc.); mean ± SD, three donors
# SLC22A9 (OAT7) = experiment: as above; format: cell-based; conditions: SCHH, 72 h; TCDD 50 nM, OP 50 µM, CITCO 5 µM, PB 1,000 µM (highest conc.); mean ± SD, three donors
# SLC22A1 (OCT1) = experiment: as above; format: cell-based; conditions: SCHH, 72 h; TCDD 50 nM, OP 50 µM, CITCO 5 µM, PB 1,000 µM (highest conc.); mean ± SD, three donors
# Method: as §1, §2
# SLCO4C1 (OATP4C1) = experiment: as above; format: cell-based; conditions: SCHH, 72 h; TCDD 50 nM, OP 50 µM, CITCO 5 µM, PB 1,000 µM (highest conc.); mean ± SD, three donors
# Method: as §1, §2
# ABCB1 (MDR1) = experiment: as above; format: cell-based; conditions: SCHH, 72 h; TCDD 50 nM, OP 50 µM, CITCO 5 µM, PB 1,000 µM (highest conc.); mean ± SD, three donors
# Method: as §1, §2
# ABCC3 (MRP3) = experiment: as above; format: cell-based; conditions: SCHH, 72 h; TCDD 50 nM, OP 50 µM, CITCO 5 µM, PB 1,000 µM (highest conc.); mean ± SD, three donors
# Method: as §1, §2
# ABCG2 (BCRP) = experiment: as above; format: cell-based; conditions: SCHH, 72 h; TCDD 50 nM, OP 50 µM, CITCO 5 µM, PB 1,000 µM (highest conc.); mean ± SD, three donors
# Method: as §1, §2
# SLCO1B3 (OATP1B3) = experiment: as above; format: cell-based; conditions: SCHH, 72 h; TCDD 50 nM, OP 50 µM, CITCO 5 µM, PB 1,000 µM (highest conc.); mean ± SD, three donors
# Method: as §1, §2
# ABCC5 (MRP5) = experiment: as above; format: cell-based; conditions: SCHH, 72 h; TCDD 50 nM, OP 50 µM, CITCO 5 µM, PB 1,000 µM (highest conc.); mean ± SD, three donors
# Method: as §1, §2
# SLCO2B1 (OATP2B1) = experiment: as above; format: cell-based; conditions: SCHH, 72 h; TCDD 50 nM, OP 50 µM, CITCO 5 µM, PB 1,000 µM (highest conc.); mean ± SD, three donors
# Method: as §1, §2
# ABCC6 (MRP6) = experiment: as above; format: cell-based; conditions: SCHH, 72 h; TCDD 50 nM, OP 50 µM, CITCO 5 µM, PB 1,000 µM (highest conc.); mean ± SD, three donors
# Method: as §1, §2
# SLC47A1 (MATE1) = experiment: as above; format: cell-based; conditions: SCHH, 72 h; TCDD 50 nM, OP 50 µM, CITCO 5 µM, PB 1,000 µM (highest conc.); mean ± SD, three donors
# Method: as §1, §2
# SLCO1B1 (OATP1B1) = experiment: as above; format: cell-based; conditions: SCHH, 72 h; TCDD 50 nM, OP 50 µM, CITCO 5 µM, PB 1,000 µM (highest conc.); mean ± SD, three donors
# Method: as §1, §2
# ABCC4 (MRP4) = experiment: as above; format: cell-based; conditions: SCHH, 72 h; TCDD 50 nM, OP 50 µM, CITCO 5 µM, PB 1,000 µM (highest conc.); mean ± SD, three donors
# Method: as §1, §2
# ABCB11 (BSEP) = experiment: as above; format: cell-based; conditions: SCHH, 72 h; TCDD 50 nM, OP 50 µM, CITCO 5 µM, PB 1,000 µM (highest conc.); mean ± SD, three donors
# Method: as §1, §2
# ABCC2 (MRP2) = experiment: as above; format: cell-based; conditions: SCHH, 72 h; TCDD 50 nM, OP 50 µM, CITCO 5 µM, PB 1,000 µM (highest conc.); mean ± SD, three donors
# Method: as §1, §2
# CYP2B6 = experiment: in vitro
# Method: as §1
# as §2, with “The 2^−ΔΔCt method ([Livak and Schmittgen, 2001]) was used to analyze the relative changes in gene expression, where the Ct is the cycle number at which the fluorescence in the reaction crosses the preset arbitrary threshold; the ΔCt represents the difference between the Ct target and reference and the ΔΔCt is the difference between the ΔCt of the test and the ΔCt of the preassigned control.” left out
# CYP3A4 = experiment: in vitro; conditions: for EC50 at 72 h: human
# Method: as §1
# as §2, with “The 2^−ΔΔCt method ([Livak and Schmittgen, 2001]) was used to analyze the relative changes in gene expression, where the Ct is the cycle number at which the fluorescence in the reaction crosses the preset arbitrary threshold; the ΔCt represents the difference between the Ct target and reference and the ΔΔCt is the difference between the ΔCt of the test and the ΔCt of the preassigned control.” left out
# SLC15A1 (PEPT1) = experiment: gene induction in sandwich-cultured human hepatocytes (qRT-PCR); format: cell-based; conditions: SCHH, 72 h; TCDD 50 nM, OP 50 µM, CITCO 5 µM, PB 1,000 µM (highest conc.); mean ± SD, three donors
# CYP1A1 = experiment: in vitro; conditions: human
# Method: as §1
# as §2, with “When concentration-dependent induction observed, the in vitro induction mRNA data were fitted using the sigmoid 3-parameter equation in GraphPad Prism (La Jolla, CA) to estimate the in vitro concentration of inducer that produced half the maximum induction values (EC50).” left out
# [2] = SCHH, 72 h, TCDD 50 nM, OP 50 µM, CITCO 5 µM, PB 1,000 µM (highest conc.), mean ± SD, three donors
structure (smiles),measurement,setting,value
"Clc1ccc(-c2nc3sccn3c2C=NOCc2ccc(Cl)c(Cl)c2)cc1 [CITCO, 6-(4-chlorophenyl)imidazo[2,1-b][1,3]thiazole-5-carbaldehyde O-(3,4-dichlorobenzyl)oxime]",UGT1A1 mRNA fold change,UGT1A1; [2],[…]
same,EC50 at 72 h,UGT1A1,> 5 µM
same,SLC10A1 gene suppression (reduction),SLC10A1 (NTCP),about 2 fold
same,EC50 at 72 h,"CYP2B6; human, sandwich-cultured human hepatocytes (SCHH)",0.16 ± 0.04 µM
"COc1ccc2[nH]c([S+]([O-])Cc3ncc(C)c(OC)c3C)nc2c1 (stereo not shown) [OP, Omeprazole]",EC50 at 72 h,UGT1A1,28.7 ± 7.32 µM
same,EC50 at 72 h,CYP1A1,3.34 ± 1.39 µM
same,SLC10A1 gene suppression (reduction),SLC10A1 (NTCP),about 2 fold
